Patent US20210223252A1, “METHODS FOR PROTEOMIC PROFILING USING NON-NATURAL AMINO ACIDS” (California Institute of Technology, priority 2004, published 2021)

How the values were obtained:
[1] = system: E. coli and mammalian cells; assay: Protein degradation upon introduction of AHA; type: cell-based; details: studies in E. coli and experiments in mammalian cells
[2] = system: dissociated hippocampal neurons; assay: AHA toxicity by whole neuron morphology (GFP reporter); type: cell-based, rat; details: 2 hrs incubation
Protocol: Dissociated hippocampal neuron cultures were prepared from newborn rat pups (PO) as outlined in (Banker and Goslin, 1990), Neurons were plated at a density of 15,000-45,000 cells/cm^2 onto poly-D-lysine coated cell culture dishes or onto poly-D-lysine and growth factor reduced matrigel (BD Biosciences) coated polycarbonate nets with a pore size of 3 (Transwell, Corning) for the preparation of isolated dendrites. The cultures were maintained and allowed to mature in growth medium (Neurobasal-A supplemented with B27 and GlutaMAX-1) for 14 to 21 days before use. The use of this growth medium suppressed glial proliferation, which was even more reduced by application of Ara-C (5 μM final concentration). To supplement glial neurotrophic factors, 25% conditioned growth media from glial and cortical cultures were added to the growth media. Isolated dendrites were obtained from Transwell cultures by removing the cell body layer with a sterile cell lifter after change to HBS. For immunolabeling after AHA-incorporation and cycloaddition with BiotinCyclooctyne, neurons are fixed at room temperature with 4% paraformaldehyde for 20 minutes. […] Images are recorded through standard emission filters at contrast settings for which the crossover between the two channels is negligible. […]

HEK293 cells [3] = assay: Ubiquitin signal on Western blot of whole lysates (protein degradation); type: cell-based; details: treated two hours
Protocol: (§1) To show the specificity of this technique for the detection of newly synthesized proteins, HEK293 cells were incubated for 2 hrs with AHA in the presence or absence of a protein synthesis inhibitor (Anisomycin or Cycloheximide). After incubation, cells were lysed and subjected to [3+2]cycloaddition with the biotin-bearing alkyne-linker Biotin-PEO-Propargylamide, followed by Western blot analysis with an anti-Biotin-antibody. […] The potential for increased protein degradation was measured by examining the ubiquitin signal strength on a Western blot from whole lysates of HEK293 cells, which were treated with AHA, methionine or incubation buffer for two hours.

HEK293 cells [4] = assay: Detection of newly synthesized proteins: AHA labelling, [3+2]cycloaddition with Biotin-PEO-Propargylamide, anti-Biotin Western blot; type: cell-based; details: HEK293 cells incubated 2 hrs with AHA in the presence of the protein synthesis inhibitor
Protocol: In embodiments using [3+2] Cycloaddition, the following exemplary protocol may be used. Briefly, AHA, Biotin-PEO-Propargylamide and the triazole ligand were prepared as described previously. The tandem featured alkyne tag was synthesized by GenScript Corporation. Biotin-Cyclooctyne is a generous gift from Carolyn Bertozzi. DIO-L-leucine was purchased from Sigma. In all culture experiments, growth medium was removed from HEK293 cells, whole neuronal cultures or isolated dendrites were replaced with HEPES-buffered solution (HBS) with 2.86 mM AHA, and 2.86 mM methionine for control experiments. After incubation at 37° C., 5% CO2, cells were washed with PBS-MC (1 mMMgCl2, 0.1 mM CaCl2 in PBS) to remove excess amounts of AHA and methionine. SNS and other biochemical fractions are incubated with 2.86 mM AHA or 2.86 mM methionine under agitation at 37° C. and washed in StimBuffer after incubation. […]
as §1, with “Cycloheximide).” for “Cycloheximide). After incubation, cells were lysed and subjected to [3+2]cycloaddition with the biotin-bearing alkyne-linker Biotin-PEO-Propargylamide, followed by Western blot analysis with an anti-Biotin-antibody.”

## [N-]=[N+]=NCC[C@H](N)C(=O)O [AHA, azidohomoalanine]
[1]
  increased protein degradation: no evidence of increased protein degradation
[2]; 12 DIV neurons expressing GFP reporter
  gross morphology of neurons compared to methionine controls: no change in the gross morphology
[2]; primary/dissociated hippocampal neuronal cultures, equimolar AHA or methionine control
  toxicity to neurons: not toxic
HEK293 cells [3]
  ubiquitination compared to buffer or methionine controls: No increased ubiquitination

## C[C@@H]1C[C@@H]([C@H](O)CC2CC(=O)NC(=O)C2)C(=O)[C@@H](C)C1 [Cycloheximide]
HEK293 cells [4]
  anti-Biotin Western blot signal of AHA-labelled newly synthesized proteins: No signal was detected

## COc1ccc(C[C@H]2NC[C@H](O)[C@H]2OC(C)=O)cc1 [Anisomycin]
HEK293 cells [4]
  anti-Biotin Western blot signal of AHA-labelled newly synthesized proteins: No signal was detected
